pKi: −log10 of the molar value.
How the values were obtained:
TYK2 = molecular target: T1, TYK2 (Homo sapiens, UniProt P29597); test: TYK2 Ki determination assay; format: biochemical; conditions: Lineweaver-Burk plot, polyGT substrate, varying ATP
T1 construct: catalytic domain (amino acids 871-1187; catalog number 08-147); GST; purchased Carna Biosciences 08-147
T1 sequence (P29597 871-1187): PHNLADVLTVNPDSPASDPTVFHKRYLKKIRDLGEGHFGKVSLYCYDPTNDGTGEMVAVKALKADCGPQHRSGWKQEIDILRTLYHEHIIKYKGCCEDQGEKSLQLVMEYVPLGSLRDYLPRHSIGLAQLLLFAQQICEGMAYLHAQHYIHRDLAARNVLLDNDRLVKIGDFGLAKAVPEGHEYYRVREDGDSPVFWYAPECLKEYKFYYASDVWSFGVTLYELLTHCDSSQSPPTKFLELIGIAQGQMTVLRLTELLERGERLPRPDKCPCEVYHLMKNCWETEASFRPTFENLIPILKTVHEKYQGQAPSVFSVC
Experimental: For the determination of Ki, different amounts of compound are mixed with the enzyme and the enzymatic reaction is followed as a function of ATP concentration. The Ki is determined by means of double reciprocal plotting of Km vs compound concentration (Lineweaver-Burk plot). TYK2 (Carna Biosciences, 08-147) was used at a final concentration of 160 ng/ml. The substrate was Poly(Glu,Tyr)sodium salt (4:1), MW 20 000-50 000 (Sigma, P0275) The reaction was performed in 25 mM Hepes pH 7.2, 50 mM NaCl, 0.5 mM EDTA, 1 mM DTT, 5 mM MnCl2, 10 mM MgCl2, 0.1% Brij-35 with varying concentrations of ATP and compound and stopped by addition of 150 mM phosphoric acid. Measurement of incorporated phosphate into the substrate polyGT was done by loading the samples on a filter plate (using a harvester, Perkin Elmer) and subsequent washing. Incorporated ^33P in polyGT is measured in a Topcount scintillation counter after addition of scintillation liquid to the filter plates (Perkin Elmer).

rat CIA model = test: Rat collagen induced arthritis (CIA) model; format: in vivo; conditions: dose of 0.1 mg/kg
Experimental: Completed Freund's adjuvant (CFA) and incomplete Freund's adjuvant (IFA) were purchased from Difco. Bovine collagen type II (CII), lipopolysaccharide (LPS), and Enbrel was obtained from Chondrex (Isle d'Abeau, France); Sigma (P4252, L′Isle d'Abeau, France), Whyett (25 mg injectable syringe, France) Acros Organics (Palo Alto, Calif.), respectively. All other reagents used were of reagent grade and all solvents were of analytical grade.
Dark Agouti rats (male, 7-8 weeks old) were obtained from Harlan Laboratories (Maison-Alfort, France). Rats were kept on a 12 hr light/dark cycle (0700-1900). Temperature was maintained at 22° C., and food and water were provided ad libitum.
One day before the experiment, CII solution (2 mg/mL) is prepared with 0.05 M acetic acid and stored at 4° C. Just before the immunization, equal volumes of adjuvant (IFA) and CII are mixed by a homogenizer in a pre-cooled glass bottle in an ice water bath. […]
Arthritis is scored according to the method of Khachigian 2006, Lin et al 2007 and Nishida et al. 2004). […]
The area under the curve (AUC) from day 1 to day 14 is calculated for each individual rat. The AUC of each animal is divided by the average AUC obtained for the vehicle in the study from which the data on that animal is obtained and multiplied by 100 (i.e. the AUC was expressed as a percentage of the average vehicle AUC per study). […]

CC(=O)Nc1cc2c(-c3ccc(CN4CCN(S(C)(=O)=O)CC4)c(F)c3)cccn2n1 [Compound 21] was tested, and the pKi (TYK2) was 6.87 and the “normalized clinical score values (calculated as AUC or as the difference from day 1 to day 14)” value (rat CIA model) was “statistically significant improvements”.
